From patent US20150196033A1, “PESTICIDAL COMPOSITIONS AND PROCESSES RELATED THERETO” (priority 2012, published 2015)

How the values were obtained:
Type in all cases: in vivo
[1] = tested on: Beet Armyworm (BAW) (Spodoptera exigua); experiment: Bioassay on Beet Armyworm (BAW), 128-well diet tray assay; settings: Spodoptera exigua, 168 h; 50 μg/cm2 on artificial diet, second instar larvae, five to seven days; read-out: Rating BAW (% Control (or Mortality))
Outline: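 Spodoptera exigua larvae on diet trays held 5–7 days at 25 °C, 14:10 light-dark. Percent mortality scored per well and averaged over eight wells.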

[2] = tested on: Yellow Fever Mosquito (YFM) (Aedes aegypti); settings: about 1 day-old larvae, scored on mortality after 3 days
Method: Certain molecules disclosed in this document were tested against YFM using procedures described in the following paragraph. In the reporting of the results, the “YFM Rating Table” was used (See Table Section).
Master plates containing 400 μg of a molecule dissolved in 100 μL of dimethyl sulfoxide (DMSO) (equivalent to a 4000 ppm solution) are used. A master plate of assembled molecules contains 15 μL per well. To this plate, 135 μL of a 90:10 water:acetone mixture is added to each well. A robot (Biomek® NXP Laboratory Automation Workstation) is programmed to dispense 15 μL aspirations from the master plate into an empty 96-well shallow plate (“daughter” plate). There are 6 reps (“daughter” plates) created per master. The created daughter plates are then immediately infested with YFM larvae.
The day before plates are to be treated, mosquito eggs are placed in Millipore water containing liver powder to begin hatching (4 g. into 400 ml). After the daughter plates are created using the robot, they are infested with 220 μL of the liver powder/larval mosquito mixture (about 1 day-old larvae). After plates are infested with mosquito larvae, a non-evaporative lid is used to cover the plate to reduce drying. Plates are held at room temperature for 3 days prior to grading. After 3 days, each well is observed and scored based on mortality.

[3] = tested on: Green Peach Aphid (GPA) (Myzus persicae); experiment: Bioassay on Green Peach Aphid (GPA), foliar spray on cabbage seedlings; settings: Myzus persicae, 72 h; 200 ppm foliar spray on cabbage seedlings, graded after three days, Abbott corrected % control; read-out: Rating GPA (% Control (or Mortality))
Method: Certain molecules disclosed in this document were tested against GPA using procedures described in the following example. In the reporting of the results, the “GPA Rating Table” was used (See Table Section).
Cabbage seedlings grown in 3-inch pots, with 2-3 small (3-5 cm) true leaves, were used as test substrate. The seedlings were infested with 20-50 GPA (wingless adult and nymph stages) one day prior to chemical application. Four pots with individual seedlings were used for each treatment. Test compounds (2 mg) were dissolved in 2 mL of acetone/MeOH (1:1) solvent, forming stock solutions of 1000 ppm test compound. The stock solutions were diluted 5× with 0.025% Tween 20 in H2O to obtain the solution at 200 ppm test compound. A hand-held aspirator-type sprayer was used for spraying a solution to both sides of […] leaves until runoff. Reference plants (solvent check) were sprayed with the diluent only containing 20% by volume of acetone/MeOH (1:1) solvent. Treated plants were held in a holding room for three days at approximately 25° C. and ambient relative humidity (RH) prior to grading. Evaluation was conducted by counting the number of live aphids per plant under a microscope. Percent Control was measured by using Abbott's correction formula (W.S. Abbott, “A Method of Computing the Effectiveness of an Insecticide” J. Econ. Entomol. 18 (1925), pp. 265-267) as follows.
Corrected % Control=100*(X−Y)/X • where • X=No. of live aphids on solvent check plants and • Y=No. of live aphids on treated plants

[4] = tested on: Corn Earworm (CEW) (Helicoverpa zea); experiment: Bioassay on Corn Earworm (CEW), 128-well diet tray assay; settings: Helicoverpa zea, 168 h, second instar larvae, five to seven days; for mortality at 50 µg/cm2: 50 μg/cm2 on artificial diet, read-out: Rating CEW (% Control (or Mortality))
Outline: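 Helicoverpa zea larvae in 128-well diet trays, held at 25 °C, 14:10 light-dark for five to seven days. Percent mortality scored per well and averaged over eight wells.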

| SMILES | mortality at 50 µg/cm2 [1] [%] | Rating YFM (% Control (or Mortality)) [2] | mortality at 200 ppm [3] [%] | mortality at 50 µg/cm2 [4] [%] | mortality at 0.5 µg/cm2 ([4]; 0.5 μg/cm2 on artificial diet, read-out: Rating CEW (% Control (or Mortality)), *Tested at 0.5 μg/cm2) [%] |
| --- | --- | --- | --- | --- | --- |
| COc1cc(C)c(-n2c(C)cs/c2=N\C(=O)Nc2ccc(-c3ncn(-c4ccc(OC(F)(F)F)cc4)n3)cc2)c(C)c1 [Molecule A44] | 50 to 100 | A (80-100) | 0 to 80 | 50 to 100 | – |
| CCc1ccccc1N/C(S)=N/C(=O)Nc1ccc(-c2ncn(-c3ccc(OC(F)(F)F)cc3)n2)cc1 [Molecule A46] | 50 to 100 | A (80-100) | 0 to 80 | 50 to 100 | – |
| COc1ccc(N/C(=N\C(=O)Nc2ccc(-c3ncn(-c4ccc(OC(F)(F)F)cc4)n3)cc2)SCOC(=O)C(C)C)cc1 [Molecule A62] | 50 to 100 | A (80-100) | 0 | 50 to 100 | – |
| COc1ccc(N2C(=O)CS/C2=N\C(=O)Nc2ccc(-c3ncn(-c4ccc(OC(F)(F)F)cc4)n3)cc2)c(C)c1 [Molecule A110] | 50 to 100 | A (80-100) | 0 | – | 50 to 100 |
| Cc1cccc(C)c1N1C(=O)C(C)(C)S/C1=N\C(=O)Nc1ccc(-c2ncn(-c3ccc(OC(F)(F)F)cc3)n2)cc1 [Molecule A126] | 50 to 100 | A (80-100) | 0 | 50 to 100 | – |
